Assay results: ChEMBL document CHEMBL4020740, “Antitubulin effects of aminobenzothiophene-substituted triethylated chromones” (Bioorg Med Chem Lett, 2017)
Calls of active or inactive are those of the source. No cut-off for these calls is given here.

Tests used:
[1] = Antiproliferative activity against human KBVIN cells by sulforhodamine B assay; assay type: functional, cell-based
[2] = system: MDA-MB-231; assay: Antiproliferative activity against human MDA-MB-231 cells by sulforhodamine B assay
[3] = system: MCF7; assay: Antiproliferative activity against human MCF7 cells by sulforhodamine B assay
[4] = system: A549; assay: Antiproliferative activity against human A549 cells by sulforhodamine B assay
[5] = system: KB; assay: Antiproliferative activity against human KB cells by sulforhodamine B assay
[6] = organism: Homo sapiens; assay: Inhibition of tubulin polymerization in interphase stage of human MDA-MB-231 cells at 0.2 uM after 24 hrs by DAPI staining based confocal microscopic analysis
[7] = Lipophilicity, log P of the compound; assay type: physicochemical; details: octanol/water

IC50 [2] | IC50 [3] | IC50 [4] | IC50 [5] | inhibition [6] | logP [7] | SMILES | IC50 [1]
– | – | – | – | – | – | CC(=O)O[C@H]1C(=O)[C@@]2(C)[C@H]([C@H](OC(=O)c3ccccc3)[C@]3(O)C[C@H](OC(=O)[C@H](O)[C@@H](NC(=O)c4ccccc4)c4ccccc4)C(C)=C1C3(C)C)[C@]1(OC(C)=O)CO[C@@H]1C[C@@H]2O [PACLITAXEL] | 2.04 µM
> 40 µM | > 40 µM | > 40 µM | > 40 µM | – | – | CCC1=C(O)c2c(oc(-c3csc4cc(NC(=O)OC(C)(C)C)ccc34)cc2=O)C(CC)(CC)C1=O | > 40 µM
6.52 µM | 6.01 µM | 5.62 µM | 5.13 µM | – | – | CCC1=C(OC)C(CC)(CC)c2oc(-c3csc4cc(NC(=O)OC(C)(C)C)ccc34)cc(=O)c2C1=O | 5.02 µM
– | – | – | – | Active | – | COc1ccc(/C=C\c2cc(OC)c(OC)c(OC)c2)cc1O | –
7.48 µM | 7.01 µM | 5.1 µM | 5.88 µM | – | – | CCC1=C(OC)C(CC)(CC)C(O)=C(C(=O)/C=C/c2csc3ccc(NC(=O)OC(C)(C)C)cc23)C1=O | 5.45 µM
– | – | – | – | – | 2.11 | CCC1=C(O)c2c(oc(-c3csc4cc(N)ccc34)cc2=O)C(CC)(CC)C1=O | –
